According to patent publication US9637490B2, “Antifungal 5,6-dihydro-4-[(difluoroethyl)phenyl]-4H-pyrrolo[1,2-α][1,4]benzodiazepine and 4-(difluoroethyl)phenyl-6H-pyrrolo[1,2-α][1,4]benzodiazepine derivatives” (Janssen Pharmaceutica NV, priority 2010, dated 2017):
pIC50: −log10 of the molar value. Converted amounts (≈) assume the structure as drawn. Where two headings read alike, the source gives them in different places.

Key:
[1] = In vivo pharmacokinetic determinations (bioavailability) in guinea pigs; settings: guinea pig
Description: (§1) Three animals (mean weight 20±7 g for mice and 275±20 for Guinea pigs) were used per dose route, time point and formulation.
(§2) For the oral (PO) solution formulation, compound was dissolved in a 20% hydroxypropyl-β-cyclodextrin (HP-β-CD) solution at a final concentration of 1 mg/ml. HCl was added to facilitate dissolution. After dissolution, the pH was brought up to 3.7 with NaOH. Mannitol was added to make the solution isotonic. For the PO suspension formulation, compound was suspended in 0.5% methocel at a final concentration of 1 mg/ml. The formulations were stored at room temperature, protected from light and analysed quantitatively with LC-MS/MS on the day of preparation. Stability of the formulations was checked on the day of dosing.
(§3) The animals were dosed orally by gastric intubation at 10 ml/kg to obtain a final dose 10 mg/kg. Three dosed animals were sacrificed for blood sampling at 15 and 30 min, 1, 2, 3, 4, 6, 8 and 24 h after PO dose administration as a solution and at 30 min, 1, 2, 4, 6, 8 and 24 h after PO dose administration as a suspension.
(§4) Blood was collected by multiple sampling from a tail vein into Multivette® 600 K3E tubes (Sarstedt). Samples were placed immediately at approximately 4° C. and plasma was obtained following centrifugation at 4° C. for 10 minutes at approximately 1900×g. All samples were shielded from daylight and stored at ≦−18° C. prior to analysis.
(§5) Plasma samples were analysed for dosed compound using a qualified research LC-MS/MS method. The key analytical performance (linearity, upper and lower limit of quantification, accuracy and precision) of the method was reported together with the plasma concentrations.
(§6) A limited pharmacokinetic analysis was performed using WinNonlin™ Professional (Version 5.2.1). A non-compartmental analysis using the lin/log trapezoidal rule with lin/log interpolation was used for all data.

[2] = test system: Scedosporium apiospermum IHEM3817; assay: Antifungal activity in vitro (resazurin susceptibility screen), Inf. H; format: cell-based; settings: Scedosporium apiospermum, IHEM3817, Scedosporium apiospermum IHEM3817; 37 °C, 48 hours, resa time 17 hours
How it was run: (§7)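 RPMI-1640/2% glucose/MOPS pH 7.0; 10^3 cfu per well; top conc 64 μM, 2- or 4-fold dilutions from DMSO. Yeasts 24 h 37° C, dermatophytes ≥1 wk 27° C. Resazurin 0.005% added, fluorescence ex 550/em 590 nm vs untreated growth and medium-only controls.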

[3] = test system: Trichophyton rubrum B68183; assay: Antifungal activity in vitro (resazurin susceptibility screen), Inf. C; format: cell-based; settings: Trichophyton rubrum, B68183, Trichophyton rubrum B68183; 27 °C, 7 days, resa time 24 hours
How it was run: as §7

[4] = in vivo; set-up: species or system mice; settings: mouse, po
Description: as §1, §2, §3, §4, §5, §6

[5] = test system: Scedosporium prolificans IHEM21157; assay: Antifungal activity in vitro (resazurin susceptibility screen), Inf. I; format: cell-based; settings: Lomentospora prolificans, 37 °C, 48 hours, resa time 17 hours
How it was run: as §7

[6] = test system: Microsporum canis B68128; assay: Antifungal activity in vitro (resazurin susceptibility screen), Inf. B; format: cell-based; settings: Microsporum canis, B68128, Microsporum canis B68128; 27 °C, 9 days, resa time 24 hours
How it was run: as §7

[7] = test system: Rhizomucor miehei IHEM13391; assay: Antifungal activity in vitro (resazurin susceptibility screen), Inf. K; format: cell-based; settings: Rhizomucor miehei, IHEM13391, Rhizomucor miehei IHEM13391; 37 °C, 48 hours, resa time 17 hours
How it was run: as §7

[8] = test system: Cryptococcus neoformans B66663; assay: Antifungal activity in vitro (resazurin susceptibility screen), Inf. F; format: cell-based; settings: Cryptococcus neoformans, B66663, Cryptococcus neoformans B66663; 37 °C, 24 hours, resa time 4 hours
How it was run: as §7

[9] = test system: Mucor circinelloides IHEM21105; assay: Antifungal activity in vitro (resazurin susceptibility screen), Inf. L; format: cell-based; settings: 27 °C, 48 hours, resa time 17 hours
How it was run: as §7

[10] = test system: Sporothrix schenkii B62482; assay: Antifungal activity in vitro (resazurin susceptibility screen), Inf. A; format: cell-based; settings: Sporothrix, B62482, Sporothrix schenkii B62482; 27 °C, 4 days, resa time 24 hours
How it was run: as §7

[11] = test system: Candida parapsilosis B66126; assay: Antifungal activity in vitro (resazurin susceptibility screen), Inf. D; format: cell-based; settings: Lodderomyces parapsilosis, B66126, Candida parapsilosis B66126; 37 °C, 24 hours, resa time 4 hours
How it was run: as §7

[12] = test system: Trichophyton mentagrophytes B70554; assay: Antifungal activity in vitro (resazurin susceptibility screen), Inf. G; format: cell-based; settings: Trichophyton mentagrophytes, B70554, Trichophyton mentagrophytes B70554; 27 °C, 7 days, resa time 24 hours
How it was run: as §7

[13] = test system: Aspergillus fumigatus B42928; assay: Antifungal activity in vitro (resazurin susceptibility screen), Inf. E; format: cell-based; settings: Aspergillus fumigatus, B42928, Aspergillus fumigatus B42928; 27 °C, 48 hours, resa time 17 hours
How it was run: as §7

[14] = test system: Rhizopus oryzae IHEM5223; assay: Antifungal activity in vitro (resazurin susceptibility screen), Inf. J; format: cell-based; settings: Rhizopus arrhizus, 37 °C, 24 hours, resa time 6 hours
How it was run: as §7

[15] = Solubility in buffer systems A-G; format: physicochemical; settings: thermodynamic from solid
Description: A magnetic stirring bar was added to the mixtures. […] If the compound was dissolved, the result was reported (twice the weighed amount of compound/ml). If the compound was not dissolved, 0.5 ml of extra solvent was added to the suspension. […] If the compound was dissolved, the result was reported (weighed amount of compound/ml). If the compound was not dissolved, 1 ml of extra solvent is pipetted into the suspension. The mixtures were shaken (Edmund Buhler SM25 175 SPM) at ambient temperature overnight and inspected afterwards. If the compound was dissolved, the result was reported (half the weighed amount of compound/ml). If the compound was not dissolved, the suspension was filtered over a filter disc. An aliquot of the filtrate was diluted with an appropriate solvent (0.1 N HCl/acetonitrile 1/1) and submitted for concentration measurement (mg/ml) using a generic UPLC method.

[16] = test system: Microsporum canis (strain B68128); assay: Test D.4.1: activity against M. canis in guinea-pigs after oral treatment for 7 consecutive days; format: in vivo; set-up: key to semi-quantitative lesion score (mean): lesion score 0–3.5 by severity and size of lesion; settings: oral 10 mg/kg once daily for 7 days
Description: The animals used in the tests described below were female Guinea pigs (Duncan-Hartley, Charles River, 200 g). These animals were kept in groups of 2 or 3 in cages of 56×33×20 cm^3. Food pellets (Carfil Quality) and water were available ad libitum in addition to a small daily amount of hay. Standard husbandry conditions were adopted: room temperature: 22° C., humidity level: 60% and a day-night cycle of 12 h.
For the preparation of inoculums, Microsporum canis (strain B68128) was grown on Sabouraud Dextrose Agar (SDA) plates for at least one week (7-10 days) before infection (27° C.). On the day of infection, spores were harvested by adding 4-5 ml sterile water on the plate and suspending the infectious material with a bend Pasteur pipette. From the recollected fluid, 10 μl was added to a KOVA counting chamber for determination of the number of spores in 1 square (average of several squares). If needed, additional dilutions (10× or 100×) were prepared. The average number of spores in one square×dilution×90.000=cfu/ml. An inoculum of 1×10^7 cfu/ml was prepared in a honey-water mixture (50%-50%).
In the tests described below, semi-quantitative lesion scores were given based on different clinical parameters. Scores between 0 and 3.5 were assigned based on the severity and size of the lesion. The criteria are listed in detail in Table 6.
The dorsum of the guinea pigs was shaved and further depilated for 3 minutes with Veet® creme before scarification with a steel brush. An inoculum of 10^6 cfu in 150 μl (75 mQ+75 μl honey) was applied to the wound using a micropipette with disposable tips. The animal was kept immobilized until the inoculum had completely dried. […]
vehicle: methocel 0.5%, Tween 80® (polysorbate 80), demineralised water reference compound: itraconazole at 6.25 mg/ml test compounds: prepared at 25 mg/ml, subsequently further diluted
Oral treatment (gavage 0.16 ml/100 g once daily) was started about 2 hours before infection and continued once daily for 7 consecutive days. The animals were weighed after 3 days of treatment to adjust for the dose.
Developments of lesions were evaluated following the semi-quantitative lesion scoring system (see Table 6) on days 3, 5, 7, 10, 12, 14, 17 and 20. The results are show in Table 7 (“DPI” means days post infection). Reported values in Table 7 are mean values.

[17] = pH 4, aqueous with cosolvent or surfactant or cyclodextrin, buffer pH 4, containing 10% (w/v) of HPBCD, read-out: Solubility, buffer system C
[18] = pH 7.4, aqueous with cosolvent or surfactant or cyclodextrin, buffer pH 7.4, containing 10% (w/v) of HPBCD, read-out: Solubility, buffer system F
[19] = pH 7.4, aqueous with cosolvent or surfactant or cyclodextrin, buffer pH 7.4, containing 20% (w/v) of HPBCD, read-out: Solubility, buffer system G

SMILES: CC(F)(F)c1ccc(C2=NCc3c(Cl)cc(Cl)cc3-n3cccc32)cc1 [Compound 9, 7,9-dichloro-4-[4-(1,1-difluoroethyl)phenyl]-6H-pyrrolo[1,2-a][1,4]benzodiazepine]
- Bioavailability in guinea pigs (result in words) [1]: Bioavailability in guinea pigs: not soluble
- pIC50 [2]: 5.02
- pIC50 [3]: 6.00
- bioavailability [4]: 100%
- pIC50 [5]: 5.22
- pIC50 [6]: 5.40
- pIC50 [7]: < 4.19
- pIC50 [8]: 6.06
- pIC50 [9]: < 4.19
- pIC50 [10]: 4.96
- pIC50 [11]: < 4.19
- pIC50 [12]: 4.89
- pIC50 [13]: 5.10
- pIC50 [14]: < 4.19

SMILES: CCc1ccc(C2=NCc3ccc(Cl)cc3-n3cccc32)cc1 [drawing 29]
- solubility ([15]; pH 4, aqueous buffer, buffer pH 4, ambient temperature, read-out: Solubility, buffer system B): < 1 µg/mL
- solubility [15, 17]: 48 µg/mL (≈ 150 µM)
- solubility ([15]; pH 4, aqueous with cosolvent or surfactant or cyclodextrin, buffer pH 4, containing 20% (w/v) of HPBCD, read-out: Solubility, buffer system D): 1490 µg/mL (≈ 4640 µM)
- solubility ([15]; pH 7.4, aqueous buffer, buffer pH 7.4, ambient temperature, read-out: Solubility, buffer system E): < 1 µg/mL
- solubility [15, 18]: 35 µg/mL (≈ 109 µM)
- solubility [15, 19]: 110 µg/mL (≈ 343 µM)
- solubility ([15]; simulated gastric fluid, 0.01 N HCl, ambient temperature, read-out: Solubility, buffer system A): 1880 µg/mL (≈ 5850 µM)

SMILES: CN(C/C=C/C#CC(C)(C)C)Cc1cccc2ccccc12 [Terbinafine, reference compound]
- bioavailability ([1]; po, 10 mg/kg): 14%
- semi-quantitative lesion score (mean) ([16]; 3 DPI): 0
- semi-quantitative lesion score (mean) ([16]; 5 DPI): 0
- semi-quantitative lesion score (mean) ([16]; 7 DPI): 0.08
- semi-quantitative lesion score (mean) ([16]; 10 DPI): 0.33
- semi-quantitative lesion score (mean) ([16]; 12 DPI): 0.80
- semi-quantitative lesion score (mean) ([16]; 14 DPI): 0.75
- semi-quantitative lesion score (mean) ([16]; 17 DPI): 0.50
- semi-quantitative lesion score (mean) ([16]; 20 DPI): 0.42
- bioavailability ([4]; 10 mg/kg): 19%

SMILES: CC(F)(F)c1ccc(C2=NCc3ccc(Cl)cc3-n3cccc32)cc1 [drawing 30]
- solubility [15, 17]: 1230 µg/mL (≈ 3440 µM)
- solubility [15, 18]: 191 µg/mL (≈ 535 µM)
- solubility [15, 19]: 603 µg/mL (≈ 1690 µM)
- solubility ([15]; phosphate-citrate (McIlvaine) buffer pH 4, pH 4, aqueous buffer, buffer pH 4, ambient temperature, read-out: Solubility, buffer system B): 87 µg/mL (≈ 244 µM)
- solubility ([15]; phosphate-citrate (McIlvaine) buffer pH 7.4, pH 7.4, aqueous buffer, buffer pH 7.4, ambient temperature, read-out: Solubility, buffer system E): < 1 µg/mL

SMILES: CCc1ccc(C2=NCc3c(Cl)cccc3-n3cccc32)cc1 [Compound 22 of WO02/34752, reference compound]
- bioavailability ([1]; po): 2.7%
- bioavailability ([4]; 10 mg/kg): 11%

SMILES: CCc1ccc(C2=NCc3ccc(Cl)cc3-n3cccc32)cc1 [Compound 23 of WO02/34752, reference compound]
- bioavailability ([1]; PO 40 mg/kg, IV 2.5 mg/kg, read-out: Bioavailability in guinea pigs): 7%

SMILES: CC(F)(F)c1ccc(C2=NCc3ccc(Cl)cc3-n3cccc32)cc1 [Compound 17, 9-chloro-4-[4-(1,1-difluoroethyl)phenyl]-6H-pyrrolo[1,2-a][1,4]benzodiazepine]
- bioavailability ([1]; po, 10 mg/kg): 70%
- pIC50 [2]: < 4.19
- pIC50 [3]: 6.34
- pIC50 [5]: 6.12
- pIC50 [6]: 5.58
- pIC50 [7]: < 4.19
- melting point: 115.3 °C (dec.)
- pIC50 [8]: 6.49
- pIC50 [9]: < 4.19
- pIC50 [10]: 5.25
- pIC50 [11]: 5.61
- pIC50 [12]: 5.79
- pIC50 [13]: 6.26
- pIC50 [14]: 5.08
